Experimental data reported in patent US9169254B2, “Spiroimidazolone derivative” (Chugai Seiyaku Kabushiki Kaisha, priority 2009, dated 2015).
Counter-ions that a name gives are not always drawn.

Biological target: T1, human PTH1 receptor (Homo sapiens, UniProt Q03431)
T1 sequence (Q03431 27-593): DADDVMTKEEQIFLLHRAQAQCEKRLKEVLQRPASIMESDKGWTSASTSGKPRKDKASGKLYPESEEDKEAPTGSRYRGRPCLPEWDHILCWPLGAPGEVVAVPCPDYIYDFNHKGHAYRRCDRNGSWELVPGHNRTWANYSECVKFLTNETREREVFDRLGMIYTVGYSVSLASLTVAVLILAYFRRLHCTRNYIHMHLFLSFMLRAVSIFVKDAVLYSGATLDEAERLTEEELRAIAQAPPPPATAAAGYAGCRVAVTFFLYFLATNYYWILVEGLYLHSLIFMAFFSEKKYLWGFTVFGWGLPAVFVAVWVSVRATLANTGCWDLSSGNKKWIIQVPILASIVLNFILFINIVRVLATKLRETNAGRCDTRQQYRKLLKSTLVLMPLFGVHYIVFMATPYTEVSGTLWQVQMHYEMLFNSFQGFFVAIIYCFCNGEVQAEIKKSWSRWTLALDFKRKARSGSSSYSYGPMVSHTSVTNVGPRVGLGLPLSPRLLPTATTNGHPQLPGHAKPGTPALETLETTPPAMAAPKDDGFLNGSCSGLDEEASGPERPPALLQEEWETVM
Assay: In vitro cAMP signal activity in HKRK-B7 cells (LLC-PK1 cells overexpressing the human PTH1 receptor)
Format: cell-based
Settings: HKRK-B7 cells; compound at 1×10^−3 M; […]; 0.1 µM

SMILES	cAMP production activity (%)
Cc1cc(C(=O)N2CCNCC2)cc(C)c1/C=C/S(=O)(=O)N1CCC2(CC1)N=C(c1cccc(OC(F)(F)F)c1)NC2=O [Compound 446, 8-{(E)-2-[2,6-dimethyl-4-(piperazine-1-carbonyl)-phenyl]-ethenesulfonyl}-2-(3-trifluoromethoxy-phenyl)-1,3,8-triaza-spiro[4.5]dec-1-en-4-one hydrochloride]	49%
Cc1cc(N(C)C(=O)NCCN(C)C)ccc1/C=C/S(=O)(=O)N1CCC2(CC1)N=C(c1cccc(OC(F)(F)F)c1)NC2=O [Compound 457, 3-(2-Dimethylamino-ethyl)-1-methyl-1-(3-methyl-4-{(E)-2-[4-oxo-2-(3-trifluoromethoxy-phenyl)-1,3,8-triaza-spiro[4.5]dec-1-ene-8-sulfonyl]-vinyl}-phenyl)-urea]	25%

Same assay, conditions: HKRK-B7 cells; compound at 1×10^−3 M; cAMP produced as percentage of that produced by hPTH(1-34) at 100 nM

SMILES	cAMP production activity (%)
Cc1nc(CC(=O)N2CCCC(C3=NC4(CCN(S(=O)(=O)CCc5cccc6ccccc56)CC4)C(=O)N3)C2)c(C)s1 (stereo not drawn) [Compound 433, 2-{1-[2-(2,5-dimethyl-thiazol-4-yl)-acetyl]-piperidin-3-yl}-8-(2-naphthalen-1-yl-ethanesulfonyl)-1,3,8-triaza-spiro[4.5]dec-1-en-4-one]	18%
Cc1oc(-c2ccccc2)nc1CC(=O)N1CCCC(C2=NC3(CCN(S(=O)(=O)CCc4cccc5ccccc45)CC3)C(=O)N2)C1 (stereo not drawn) [Compound 434, 2-{1-[2-(5-methyl-2-phenyl-oxazol-4-yl)-acetyl]-piperidin-3-yl}-8-(2-naphthalen-1-yl-ethanesulfonyl)-1,3,8-triaza-spiro[4.5]dec-1-en-4-one]	25%
O=C(Cc1ccccn1)N1CCCC(C2=NC3(CCN(S(=O)(=O)CCc4cccc5ccccc45)CC3)C(=O)N2)C1 (stereo not drawn) [Compound 435, 8-(2-naphthalen-1-yl-ethanesulfonyl)-2-[1-(2-pyridin-2-yl-acetyl)-piperidin-3-yl]-1,3,8-triaza-spiro[4.5]dec-1-en-4-one]	17%
O=C(CCCOCc1ccccc1)N1CCCC(C2=NC3(CCN(S(=O)(=O)CCc4cccc5ccccc45)CC3)C(=O)N2)C1 (stereo not drawn) [Compound 436, 2-[1-(4-benzyloxy-butyryl)-piperidin-3-yl]-8-(2-naphthalen-1-yl-ethanesulfonyl)-1,3,8-triaza-spiro[4.5]dec-1-en-4-one]	28%
O=C(CCCc1ccccc1)N1CCCC(C2=NC3(CCN(S(=O)(=O)CCc4cccc5ccccc45)CC3)C(=O)N2)C1 (stereo not drawn) [Compound 437, 8-(2-naphthalen-1-yl-ethanesulfonyl)-2-[1-(4-phenyl-butyryl)-piperidin-3-yl]-1,3,8-triaza-spiro[4.5]dec-1-en-4-one]	45%
O=C(Cc1ccncc1)N1CCCC(C2=NC3(CCN(S(=O)(=O)CCc4cccc5ccccc45)CC3)C(=O)N2)C1 (stereo not drawn) [Compound 438, 8-(2-naphthalen-1-yl-ethanesulfonyl)-2-[1-(2-pyridin-4-yl-acetyl)-piperidin-3-yl]-1,3,8-triaza-spiro[4.5]dec-1-en-4-one]	14%
CC(C)(C)OCC(=O)N1CCCC(C2=NC3(CCN(S(=O)(=O)CCc4cccc5ccccc45)CC3)C(=O)N2)C1 (stereo not drawn) [Compound 439, 2-[1-(2-tert-butoxy-acetyl)-piperidin-3-yl]-8-(2-naphthalen-1-yl-ethanesulfonyl)-1,3,8-triaza-spiro[4.5]dec-1-en-4-one]	33%
O=C(/C=C/c1ccccc1)N1CCCC(C2=NC3(CCN(S(=O)(=O)CCc4cccc5ccccc45)CC3)C(=O)N2)C1 (stereo not drawn) [Compound 441, 8-(2-Naphthalen-1-yl-ethanesulfonyl)-2-{1-[(E)-(3-phenyl-acryloyl)]-piperidin-3-yl}-1,3,8-triaza-spiro[4.5]dec-1-en-4-one]	24%
NCC(=O)N1CCCC(C2=NC3(CCN(S(=O)(=O)c4cccc(Cl)c4)CC3)C(=O)N2)C1 (stereo not drawn) [Compound 442, 2-[1-(2-Amino-acetyl)-piperidin-3-yl]-8-(3-chloro-benzenesulfonyl)-1,3,8-triaza-spiro[4.5]dec-1-en-4-one]	2.5%
CNC1CCN(C(=O)c2ccc(CCS(=O)(=O)N3CCC4(CC3)N=C(c3cccc(C(F)(F)F)c3)NC4=O)c(C)c2)C1 (stereo not drawn) [Compound 444, 8-{2-[2-Methyl-4-(3-methylamino-pyrrolidine-1-carbonyl)-phenyl]-ethanesulfonyl}-2-(3-trifluoromethyl-phenyl)-1,3,8-triaza-spiro[4.5]dec-1-en-4-one]	46%
Cc1cc(C(=O)N2CCC(N)C2)ccc1CCS(=O)(=O)N1CCC2(CC1)N=C(c1cccc(C(F)(F)F)c1)NC2=O (stereo not drawn) [Compound 445, 8-{2-[4-(3-amino-pyrrolidine-1-carbonyl)-2-methyl-phenyl]-ethanesulfonyl}-2-(3-trifluoromethyl-phenyl)-1,3,8-triaza-spiro[4.5]dec-1-en-4-one hydrochloride]	83%
Cc1cc(C(=O)N2CCN(C(=O)CO)CC2)cc(C)c1/C=C/S(=O)(=O)N1CCC2(CC1)N=C(c1cccc(OC(F)(F)F)c1)NC2=O [Compound 447, 8-((E)-2-{4-[4-(2-Hydroxy-acetyl)-piperazine-1-carbonyl]-2,6-dimethyl-phenyl}-ethenesulfonyl)-2-(3-trifluoromethoxy-phenyl)-1,3,8-triaza-spiro[4.5]dec-1-en-4-one]	89%
COC(=O)CCC(=O)N1CCN(C(=O)c2cc(C)c(/C=C/S(=O)(=O)N3CCC4(CC3)N=C(c3cccc(OC(F)(F)F)c3)NC4=O)c(C)c2)CC1 [Compound 448, 4-[4-(3,5-dimethyl-4-{(E)-2-[4-oxo-2-(3-trifluoromethoxy-phenyl)-1,3,8-triaza-spiro[4.5]dec-1-ene-8-sulfonyl]-vinyl}-benzoyl)-piperazin-1-yl]-4-oxo-butyric acid methyl ester]	64%
Cc1cc(C(=O)N2CCN(C(=O)CCCN(C)C)CC2)cc(C)c1/C=C/S(=O)(=O)N1CCC2(CC1)N=C(c1cccc(OC(F)(F)F)c1)NC2=O [Compound 449, 8-((E)-2-{4-[4-(4-dimethylamino-butyryl)-piperazine-1-carbonyl]-2,6-dimethyl-phenyl}-ethenesulfonyl)-2-(3-trifluoromethoxy-phenyl)-1,3,8-triaza-spiro[4.5]dec-1-en-4-one]	94%
COCC(=O)N(C)c1ccc(/C=C/S(=O)(=O)N2CCC3(CC2)N=C(c2cccc(OC(F)(F)F)c2)NC3=O)c(C)c1 [Compound 450, 2-Methoxy-N-methyl-N-(3-methyl-4-{(E)-2-[4-oxo-2-(3-trifluoromethoxy-phenyl)-1,3,8-triaza-spiro[4.5]dec-1-ene-8-sulfonyl]-vinyl}-phenyl)-acetamide]	56%
Cc1cc(N(C)C(=O)CO)ccc1/C=C/S(=O)(=O)N1CCC2(CC1)N=C(c1cccc(OC(F)(F)F)c1)NC2=O [Compound 451, 2-Hydroxy-N-methyl-N-(3-methyl-4-{(E)-2-[4-oxo-2-(3-trifluoromethoxy-phenyl)-1,3,8-triaza-spiro[4.5]dec-1-ene-8-sulfonyl]-vinyl}-phenyl)-acetamide]	96%
Cc1cc(C(=O)N(C)CC(=O)O)cc(C)c1/C=C/S(=O)(=O)N1CCC2(CC1)N=C(c1cccc(C(F)(F)F)c1)NC2=O [Compound 452, [(3,5-Dimethyl-4-{(E)-2-[4-oxo-2-(3-trifluoromethyl-phenyl)-1,3,8-triaza-spiro[4.5]dec-1-ene-8-sulfonyl]-vinyl}-benzoyl)-methyl-amino]-acetic acid]	58%
CC(C)(C)CCN1CCCC(C2=NC3(CCN(S(=O)(=O)c4cccc(Cl)c4)CC3)C(=O)N2)C1 (stereo not drawn) [Compound 453, 8-(3-Chloro-benzenesulfonyl)-2-[1-(3,3-dimethyl-butyl)-piperidin-3-yl]-1,3,8-triaza-spiro[4.5]dec-1-en-4-one]	16%
CC(C)(C)NC(=O)N1CCCC(C2=NC3(CCN(S(=O)(=O)c4cccc(Cl)c4)CC3)C(=O)N2)C1 (stereo not drawn) [Compound 454, 3-[8-(3-Chloro-benzenesulfonyl)-4-oxo-1,3,8-triaza-spiro[4.5]dec-1-en-2-yl]-piperidine-1-carboxylic acid tert-butylamide]	19%
O=C(NCCc1ccccc1)N1CCCC(C2=NC3(CCN(S(=O)(=O)CCc4cccc5ccccc45)CC3)C(=O)N2)C1 (stereo not drawn) [Compound 455, 3-[8-(2-naphthalen-1-yl-ethanesulfonyl)-4-oxo-1,3,8-triaza-spiro[4.5]dec-1-en-2-yl]-piperidine-1-carboxylic acid phenethyl-amide]	31%
O=C(N1CCCCC1)N1CCCC(C2=NC3(CCN(S(=O)(=O)c4cccc(Cl)c4)CC3)C(=O)N2)C1 (stereo not drawn) [Compound 456, 8-(3-Chloro-benzenesulfonyl)-2-[1-(piperidine-1-carbonyl)-piperidin-3-yl]-1,3,8-triaza-spiro[4.5]dec-1-en-4-one]	28%
Cc1cc(N(C)C(N)=O)ccc1/C=C/S(=O)(=O)N1CCC2(CC1)N=C(c1cccc(OC(F)(F)F)c1)NC2=O [Compound 458, 1-methyl-1-(3-methyl-4-{(E)-2-[4-oxo-2-(3-trifluoromethoxy-phenyl)-1,3,8-triaza-spiro[4.5]dec-1-ene-8-sulfonyl]-vinyl}-phenyl)-urea]	77%
